Results from the supplement of paper PMC4862054.

Experiments:
Conditions in all cases: incubation time: 72 h
[1] = tested on: HDQ-P1; assay: normalised viability (% of control), CellTiter-Blue; higher = more viable cells (about 100 = DMSO control)
Procedure, shortened: (§1)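 The reported figure is normalised viability at a single listed concentration of the series. Breast cancer cell lines (20 µl suspension) went onto 384-well plates holding compound in 5 µl medium for 72 h. CellTiter-Blue (2.5 µl, 2 h, 37 °C) was read by fluorescence at 560/590 nm, and each plate was scaled to vehicle at 100 and a positive kill control at 0.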

[2] = tested on: CAL-148; assay: as above
Procedure, shortened: as §1

[3] = tested on: CAL-51; assay: as above
Procedure, shortened: as §1

[4] = tested on: MDA-MB-468; assay: as above
Procedure, shortened: as §1

[5] = tested on: HCC1599; assay: as above
Procedure, shortened: as §1

[6] = tested on: BT-474; assay: as above
Procedure, shortened: as §1

[7] = tested on: DU-4475; assay: as above
Procedure, shortened: as §1

[8] = tested on: CAL-120; assay: as above
Procedure, shortened: as §1

[9] = tested on: HCC1937; assay: as above
Procedure, shortened: as §1

[10] = tested on: BT-549; assay: as above
Procedure, shortened: as §1

[11] = tested on: CAL-85-1; assay: as above
Procedure, shortened: as §1

[12] = tested on: Hs578T; assay: as above
Procedure, shortened: as §1

[13] = tested on: MDA-MB-453; assay: as above
Procedure, shortened: as §1

[14] = tested on: HCC1143; assay: as above
Procedure, shortened: as §1

[15] = tested on: SK-BR-3; assay: as above
Procedure, shortened: as §1

[16] = tested on: MFM-223; assay: normalised response (% of control), CellTox Green; higher = less cell death (100 = DMSO, 0 = benzethonium chloride kill control)
Procedure, shortened: (§2)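 Breast cancer cell lines in 20 µl suspension were added to 384-well plates containing compound at 5 concentrations, spaced in 10-fold steps across a 10,000-fold range chosen for each compound, and incubated for 72 h. CellTox Green fluorescence was read at 485/520 nm, followed by CellTiter-Glo luminescence after 10 min at room temperature. Signals on each plate were normalised so that 0.1 % DMSO equals 100 and a positive kill control equals 0. Every value in the table is the normalised signal at one concentration of the series.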

[17] = tested on: CAL-148; assay: as above
Procedure, shortened: as §2

[18] = tested on: HCC1599; assay: as above
Procedure, shortened: as §2

[19] = tested on: DU-4475; assay: as above
Procedure, shortened: as §2

[20] = tested on: MDA-MB-231; assay: as above
Procedure, shortened: as §2

[21] = tested on: HCC1937; assay: as above
Procedure, shortened: as §2

[22] = tested on: MDA-MB-436; assay: as above
Procedure, shortened: as §2

[23] = tested on: CAL-85-1; assay: as above
Procedure, shortened: as §2

[24] = tested on: MCF-10A; assay: as above
Procedure, shortened: as §2

[25] = tested on: HCC1143; assay: as above
Procedure, shortened: as §2

## CC(=O)Nc1ccc(C(=O)Nc2ccccc2N)cc1 [CI-994]
[1]; 0.3 nM
  normalised viability: 113%
[1]; 3 nM
  normalised viability: 125%
[1]; 10 nM
  normalised viability: 108%
[2]; 0.3 nM
  normalised viability: 104%
[2]; 3 nM
  normalised viability: 93.9%
[2]; 10 nM
  normalised viability: 101%
[3]; 0.3 nM
  normalised viability: 94.6%
[3]; 3 nM
  normalised viability: 94.6%
[3]; 10 nM
  normalised viability: 96.7%
[4]; 1 nM
  normalised viability: 99.6%
[4]; 100 nM
  normalised viability: 115%
[4]; 1000 nM
  normalised viability: 100%
[5]; 1 nM
  normalised viability: 104%
[5]; 100 nM
  normalised viability: 99.8%
[5]; 1000 nM
  normalised viability: 84.8%
[6]; 1 nM
  normalised viability: 104%
[6]; 100 nM
  normalised viability: 117%
[6]; 1000 nM
  normalised viability: 97.4%
[7]; 0.3 nM
  normalised viability: 86%
[7]; 3 nM
  normalised viability: 81%
[7]; 10 nM
  normalised viability: 107%
[8]; 1 nM
  normalised viability: 99.9%
[8]; 100 nM
  normalised viability: 106%
[8]; 1000 nM
  normalised viability: 88.9%
[9]; 1 nM
  normalised viability: 86.9%
[9]; 100 nM
  normalised viability: 101%
[9]; 1000 nM
  normalised viability: 89.9%
[10]; 1 nM
  normalised viability: 116%
[10]; 100 nM
  normalised viability: 97%
[10]; 1000 nM
  normalised viability: 112%
[11]; 0.3 nM
  normalised viability: 104%
[11]; 3 nM
  normalised viability: 104%
[11]; 10 nM
  normalised viability: 101%
[12]; 1 nM
  normalised viability: 119%
[12]; 100 nM
  normalised viability: 115%
[12]; 1000 nM
  normalised viability: 92.5%
[13]; 0.3 nM
  normalised viability: 100%
[13]; 3 nM
  normalised viability: 100%
[13]; 10 nM
  normalised viability: 105%
[14]; 1 nM
  normalised viability: 113%
[14]; 100 nM
  normalised viability: 118%
[14]; 1000 nM
  normalised viability: 101%
[15]; 1 nM
  normalised viability: 103%
[15]; 100 nM
  normalised viability: 97.8%
[15]; 1000 nM
  normalised viability: 99.4%

## C[C@@H](Oc1cc(-c2cnn(C3CCNCC3)c2)cnc1N)c1c(Cl)ccc(F)c1Cl [Crizotinib]
[1]; 3 nM
  normalised viability: 88.4%
[1]; 30 nM
  normalised viability: 91.3%
[1]; 100 nM
  normalised viability: 88.6%
[2]; 3 nM
  normalised viability: 91.8%
[2]; 30 nM
  normalised viability: 94.1%
[2]; 100 nM
  normalised viability: 100%
[3]; 3 nM
  normalised viability: 107%
[3]; 30 nM
  normalised viability: 107%
[3]; 100 nM
  normalised viability: 108%
[4]; 10 nM
  normalised viability: 107%
[4]; 1000 nM
  normalised viability: 95.3%
[4]; 10000 nM
  normalised viability: 8.61%
[5]; 10 nM
  normalised viability: 105%
[5]; 1000 nM
  normalised viability: 99.1%
[5]; 10000 nM
  normalised viability: 60.8%
[6]; 10 nM
  normalised viability: 94.2%
[6]; 1000 nM
  normalised viability: 93.3%
[6]; 10000 nM
  normalised viability: 10.3%
[7]; 3 nM
  normalised viability: 94.9%
[7]; 30 nM
  normalised viability: 98.8%
[7]; 100 nM
  normalised viability: 96.2%
[8]; 10 nM
  normalised viability: 90.3%
[8]; 1000 nM
  normalised viability: 83.4%
[8]; 10000 nM
  normalised viability: 9.87%
[9]; 10 nM
  normalised viability: 38.1%
[9]; 1000 nM
  normalised viability: 89.2%
[9]; 10000 nM
  normalised viability: 7.72%
[10]; 10 nM
  normalised viability: 107%
[10]; 1000 nM
  normalised viability: 107%
[10]; 10000 nM
  normalised viability: 30.1%
[11]; 3 nM
  normalised viability: 91.7%
[11]; 30 nM
  normalised viability: 91%
[11]; 100 nM
  normalised viability: 94%
[12]; 10 nM
  normalised viability: 102%
[12]; 1000 nM
  normalised viability: 103%
[12]; 10000 nM
  normalised viability: 34%
[13]; 3 nM
  normalised viability: 95.2%
[13]; 30 nM
  normalised viability: 81.3%
[13]; 100 nM
  normalised viability: 87.6%
[14]; 10 nM
  normalised viability: 87.8%
[14]; 1000 nM
  normalised viability: 96.1%
[14]; 10000 nM
  normalised viability: 42.5%
[15]; 10 nM
  normalised viability: 97.2%
[15]; 1000 nM
  normalised viability: 110%
[15]; 10000 nM
  normalised viability: 5.81%

## CNCc1ccc(-c2[nH]c3cc(F)cc4c3c2CCNC4=O)cc1 [Rucaparib] (1000 nM)
[16]
  normalised response: 84.5%
[17]
  normalised response: 100%
[18]
  normalised response: 96.6%
[19]
  normalised response: 95.3%
[20]
  normalised response: 100%
[21]
  normalised response: 76%
[22]
  normalised response: 60.3%
[23]
  normalised response: 71.2%
[24]
  normalised response: 84.3%
[25]
  normalised response: 104%

## Clc1ccc(Nc2nnc(Cc3ccncc3)c3ccccc23)cc1 [Vatalanib]
[1]; 3 nM
  normalised viability: 105%
[1]; 30 nM
  normalised viability: 102%
[1]; 100 nM
  normalised viability: 108%
[2]; 3 nM
  normalised viability: 76.1%
[2]; 30 nM
  normalised viability: 83.6%
[2]; 100 nM
  normalised viability: 82.2%
[3]; 3 nM
  normalised viability: 104%
[3]; 30 nM
  normalised viability: 98.7%
[3]; 100 nM
  normalised viability: 104%
[4]; 10 nM
  normalised viability: 98.6%
[4]; 1000 nM
  normalised viability: 112%
[4]; 10000 nM
  normalised viability: 78.2%
[5]; 10 nM
  normalised viability: 116%
[5]; 1000 nM
  normalised viability: 115%
[5]; 10000 nM
  normalised viability: 113%
[6]; 10 nM
  normalised viability: 95.8%
[6]; 1000 nM
  normalised viability: 96%
[6]; 10000 nM
  normalised viability: 73.1%
[7]; 3 nM
  normalised viability: 98.2%
[7]; 30 nM
  normalised viability: 100%
[7]; 100 nM
  normalised viability: 99%
[8]; 10 nM
  normalised viability: 82.2%
[8]; 1000 nM
  normalised viability: 89.7%
[8]; 10000 nM
  normalised viability: 82.6%
[9]; 10 nM
  normalised viability: 75%
[9]; 1000 nM
  normalised viability: 95.7%
[9]; 10000 nM
  normalised viability: 91.9%
[10]; 10 nM
  normalised viability: 87.3%
[10]; 1000 nM
  normalised viability: 88.2%
[10]; 10000 nM
  normalised viability: 85.9%
[11]; 3 nM
  normalised viability: 90%
[11]; 30 nM
  normalised viability: 87.6%
[11]; 100 nM
  normalised viability: 93.4%
[12]; 10 nM
  normalised viability: 115%
[12]; 1000 nM
  normalised viability: 104%
[12]; 10000 nM
  normalised viability: 84.7%
[13]; 3 nM
  normalised viability: 107%
[13]; 30 nM
  normalised viability: 112%
[13]; 100 nM
  normalised viability: 112%
[14]; 10 nM
  normalised viability: 80.5%
[14]; 1000 nM
  normalised viability: 87.2%
[14]; 10000 nM
  normalised viability: 79.6%
[15]; 10 nM
  normalised viability: 95.2%
[15]; 1000 nM
  normalised viability: 101%
[15]; 10000 nM
  normalised viability: 86.9%

## C[C@]12CC[C@@H]3c4ccc(O)cc4C[C@@H](CCCCCCCCC[S+]([O-])CCCC(F)(F)C(F)(F)F)[C@H]3[C@@H]1CC[C@@H]2O (stereo partly drawn) [Fulvestrant] (1000 nM)
[16]
  normalised response: 97.8%
[17]
  normalised response: 100%
[18]
  normalised response: 98%
[19]
  normalised response: 99.7%
[20]
  normalised response: 115%
[21]
  normalised response: 98.5%
[22]
  normalised response: 93%
[23]
  normalised response: 74.9%
[24]
  normalised response: 101%
[25]
  normalised response: 113%

## C#Cc1cccc(Nc2ncnc3cc(OCCOC)c(OCCOC)cc23)c1 [Erlotinib] (1000 nM)
[16]
  normalised response: 86.7%
[17]
  normalised response: 69.6%
[18]
  normalised response: 103%
[19]
  normalised response: 103%
[20]
  normalised response: 101%
[21]
  normalised response: 121%
[22]
  normalised response: 101%
[23]
  normalised response: 70.4%
[24]
  normalised response: 69.5%
[25]
  normalised response: 112%

## Cn1c(CCCC(=O)O)nc2cc(N(CCCl)CCCl)ccc21 [Bendamustine] (10000 nM)
[16]
  normalised response: 96.5%
[17]
  normalised response: 92.6%
[18]
  normalised response: 111%
[19]
  normalised response: 103%
[21]
  normalised response: 90.7%
[22]
  normalised response: 114%
[23]
  normalised response: 84.3%
[24]
  normalised response: 95.4%
[25]
  normalised response: 129%

## N.N.[Cl][Pt][Cl] [Cisplatin] (1000 nM)
[16]
  normalised response: 93.2%
[17]
  normalised response: 109%
[18]
  normalised response: 92%
[19]
  normalised response: 97.5%
[20]
  normalised response: 94.5%
[21]
  normalised response: 92.5%
[22]
  normalised response: 98.4%
[23]
  normalised response: 97.9%
[24]
  normalised response: 123%
[25]
  normalised response: 108%

## CN(C)/N=N/c1[nH]cnc1C(N)=O [Dacarbazine] (1000 nM)
[17]
  normalised response: 101%
[18]
  normalised response: 101%
[19]
  normalised response: 101%
[20]
  normalised response: 116%
[21]
  normalised response: 116%
[22]
  normalised response: 77%
[23]
  normalised response: 103%
[24]
  normalised response: 111%
[25]
  normalised response: 86.7%
